How the values were obtained:
[1] = tested on: Staphylococus aureus ATCC 6538 biofilm; test: Activity against biofilms formed on polystyrene 96-well plates, 24 h exposure, resazurin; assay type: cell-based, Staphylococcus aureus
Method: Bacterial strains were obtained from the Polish Collection of Microorganisms (Polish Academy of Science, Wroclaw, Poland). […] The bacteria were cultured in a Mueller Hinton Broth II (MHB, Biocorp, Warsaw, Poland) overnight, under aerobic conditions at 37 °C. After incubation, the liquid cultures were centrifuged (2500 rpm for 10 min) and washed with phosphoric buffer (PBS, AppliChem, Darmstadt, Germany) three times and resuspended in fresh MHB II for inoculums appropriate for the performed assays.
Bacterial suspensions were added to 96-well plates (Kartell, Noviglio, Italy) at initial inoculums of ca. 5 × 10^8 CFU/mL and incubated under aerobic conditions with shaking (120 rpm) at 37 °C for 24 h. […] After exposure, the wells were washed three times with PBS and a solution of resazurin (Sigma Aldrich, St. Louis, MO, USA) in MHB II (0.01%) was added. This cell viability reagent is metabolized by bacterial dehydrogenases upon contact with living cells. As a result, the blue dye is reduced to a pink resorufin. After 1.5 h of incubation, the absorbance was measured at 570 and 600 nm using a microplate reader (Thermo Fisher Scientific, Waltham, MA, USA). […] The metabolic activity of bacteria in the samples was measured according to the following formula:
Metabolic activity (%) = (ΔAbs of sample − ΔAbs of negative control)/(ΔAbs of positive control − ΔAbs of negative control);
ΔAbs = absorbance at 570 nm − absorbance at 600 nm;
The presented results are the means of nine results obtained on three different days.

[2] = tested on: Staphylococus aureus ATCC 6538 biofilm; test: Activity against biofilms on 96-well plates after withdrawal of the antimicrobial (additional 24 h in MHB II); assay type: cell-based, Staphylococcus aureus; conditions: after withdrawal and additional 24 h in MHB II
Method: (§1) Bacterial strains were obtained from the Polish Collection of Microorganisms (Polish Academy of Science, Wroclaw, Poland). Three Gram-positive and two Gram-negative strains linked with CL-related infections were chosen for the study (Staphylococus aureus ATCC 6538, Staphylococcus epidermidis ATCC 14990, Pseudomonas aeruginosa ATCC 9027, Escherichia coli ATCC 25922, and Enterococcus faecalis ATCC 29212). The bacteria were cultured in a Mueller Hinton Broth II (MHB, Biocorp, Warsaw, Poland) overnight, under aerobic conditions at 37 °C. […] Bacterial suspensions were added to 96-well plates (Kartell, Noviglio, Italy) at initial inoculums of ca. 5 × 10^8 CFU/mL and incubated under aerobic conditions with shaking (120 rpm) at 37 °C for 24 h. […] After exposure, the wells were washed three times with PBS and a solution of resazurin (Sigma Aldrich, St. […] This cell viability reagent is metabolized by bacterial dehydrogenases upon contact with living cells. As a result, the blue dye is reduced to a pink resorufin. After 1.5 h of incubation, the absorbance was measured at 570 and 600 nm using a microplate reader (Thermo Fisher Scientific, Waltham, MA, USA). […] The procedure was conducted as described in Section 4.3, with the difference that after exposure to antimicrobials, the wells were washed three times with PBS and pure MHB II was added. The samples were incubated for another 24 h (aerobic conditions, 120 rpm shaking, 37 °C). […] The absorbance was measured at the same wave lengths and metabolic activity was calculated according to the formula given in Section 4.3. The presented results are means of nine results obtained on three different days.

[3] = tested on: Enterococcus faecalis ATCC 29212 biofilm; test: as above; assay type: cell-based; conditions: after withdrawal and additional 24 h in MHB II; for concentration permanently eradicating the biofilm: EF biofilm on polystyrene
Method: as §1

[4] = tested on: Escherichia coli ATCC 25922 biofilm; test: as above; assay type: cell-based; conditions: after withdrawal and additional 24 h in MHB II
Method: as §1

[5] = tested on: Pseudomonas aeruginosa ATCC 9027 biofilm; test: as above; assay type: cell-based; conditions: lowest concentration giving permanent reduction of metabolic activity by at least 50 ± 5%; after withdrawal and additional 24 h in MHB II
Method: as §1

[6] = tested on: Staphylococcus epidermidis ATCC 14990 biofilm; test: as above; assay type: cell-based; conditions: after withdrawal and additional 24 h in MHB II
Method: as §1

[7] = tested on: Enterococcus faecalis ATCC 29212 biofilm on CLs; test: Activity of lipopeptide and CL liquids against biofilms formed on contact lenses; assay type: cell-based; conditions: EF biofilm on CLs, lipopeptide in PBS, 24 h, resazurin
Method: (§2) Bacterial strains were obtained from the Polish Collection of Microorganisms (Polish Academy of Science, Wroclaw, Poland). Three Gram-positive and two Gram-negative strains linked with CL-related infections were chosen for the study (Staphylococus aureus ATCC 6538, Staphylococcus epidermidis ATCC 14990, Pseudomonas aeruginosa ATCC 9027, Escherichia coli ATCC 25922, and Enterococcus faecalis ATCC 29212). The bacteria were cultured in a Mueller Hinton Broth II (MHB, Biocorp, Warsaw, Poland) overnight, under aerobic conditions at 37 °C. After incubation, the liquid cultures were centrifuged (2500 rpm for 10 min) and washed with phosphoric buffer (PBS, AppliChem, Darmstadt, Germany) three times and resuspended in fresh MHB II for inoculums appropriate for the performed assays.
(§3) Bacterial biofilms were cultured on commercially available CLs (1-Day Acuvue Moist, containing Etafilcon A, obtained from Johnson and Johnson Vision Care, Jacksonsville, FL, USA). The CLs were placed in polystyrene 24-well plates (Orange Scientific, Braine-l’Alleud, Belgium) in bacterial suspensions in MHB II at initial inoculums of ca. 5 × 10^8 CFU/mL. After 24 h of incubation (aerobic conditions, 120 rpm shaking, 37 °C), all of the CLs were rinsed three times with PBS. […] After incubation, resazurin was added (final concentration per sample = 0.01%) and absorbance was measured as in the assays 4.3 and 4.4. Positive controls contained CLs with bacterial biofilms placed in pure PBS, while sterile CLs incubated in MHB II replaced with PBS served as negative controls. The experiments were performed in triplicate on three different days.

[8] = tested on: Escherichia coli ATCC 25922 biofilm on CLs; test: as above; assay type: cell-based; conditions: EC biofilm on CLs, lipopeptide in PBS, 24 h, resazurin
Method: as §2, §3

[9] = tested on: Pseudomonas aeruginosa ATCC 9027 biofilm on CLs; test: as above; assay type: cell-based; conditions: PA biofilm on CLs, lipopeptide in PBS, 24 h, resazurin
Method: as §2, §3

[10] = tested on: Staphylococcus epidermidis ATCC 14990 biofilm on CLs; test: as above; assay type: cell-based; conditions: SE biofilm on CLs, lipopeptide in PBS, 24 h, resazurin
Method: as §2, §3

[11] = lowest concentration giving permanent reduction of metabolic activity by at least 50 ± 5%
[12] = lowest concentration giving permanent reduction of metabolic activity by at least 90 ± 5%

Question: Which results are given for (C10)2-KKKK-NH2 [Lipopeptide]?
Answer: reduction in the metabolic activity ([1]; SA biofilm on polystyrene, 24 h exposure, 32 mg/L and higher): over 90%; MBEC 50 ([1]; lowest concentration reducing metabolic activity by at least 50 ± 5%, polystyrene plate, 24 h exposure in MHB II, resazurin): 8 mg/L; MBEC 90 ([1]; lowest concentration reducing metabolic activity by at least 90 ± 5%, polystyrene plate, 24 h exposure in MHB II, resazurin, mean of nine results): 32 mg/L; concentration permanently eliminating living bacterial cells ([2]; SA biofilm on polystyrene): 32 mg/L; MBEC II 50 [2, 11]: 16 µg/mL; MBEC II 90 [2, 12]: 32 µg/mL; concentration permanently eradicating the biofilm ([3]; listed as (C10)2-KKKK-NH2): 32 mg/L; concentration permanently eradicating the biofilm ([3]; listed as lipopeptide): 32 to 256 mg/L; MBEC II 50 [3, 11]: 32 µg/mL; MBEC II 90 [3, 12]: 32 µg/mL; MBEC II 50 [4, 11]: 64 µg/mL; MBEC II 90 [4, 12]: 64 µg/mL; MBEC II 50 [5]: 64 µg/mL; concentration giving a permanent antibiofilm effect ([6]; SE biofilm on polystyrene): 16 mg/L; MBEC II 50 [6, 11]: 16 µg/mL; MBEC II 90 [6, 12]: 16 µg/mL; concentration reducing metabolic activity of bacteria by at least 90% [7]: 8 mg/L; concentration reducing metabolic activity by more than 90% [8]: 32 mg/L; concentration reducing metabolic activity by more than 90% [9]: 32 mg/L; concentration reducing metabolic activity of bacteria by at least 90% [10]: 8 mg/L

Reference: paper PMC6358866 (International Journal of Molecular Sciences, 2019)
